One experiment relates to NO production in BV-2 cells [NO 생성; BV-2 세포]. Nature of the experiment: Nitric oxide (NO) quantification (nitrite, Griess reaction) in LPS-activated BV-2 cells. It is filed as cell-based. The following applies: 20 μM, LPS 0.2 ㎍/mL, 24 h co-treatment, nitrite by Griess at 540 nm. Background: Griess reagent forms a coloured azo dye with nitrite.
Turning to “N-(2-클로로벤질)-6-(메틸설파이닐)-1-페닐-1H-피라졸로[3,4-d]피리미딘-4-아민 [화합물 22f]”, the “NO (% of LPS)” value is given as 58±3.7 % of LPS.

Staying with this experiment, now noted: 20 μM, LPS 0.2 ㎍/mL, 24 h co-treatment, nitrite by Griess at 540 nm, 1440 min.
Consider `CSc1nc(NCc2ccccn2)c2cn[nH]c2n1` [6h, 4-(피리딘-2-일)메틸아미노-6-(메틸티오)피라졸로[3,4-d]피리미딘], for which the “NO (% of LPS)” value was 97±5 % of LPS.

The same experiment, now with this note: Mus musculus, BV-2, 24 h, 20 μM, LPS 0.2 ㎍/mL, 24 h co-treatment, nitrite by Griess at 540 nm.
Turning to `CSc1nc(NCCO)c2cn[nH]c2n1` [6f, 4-(1-하이드록시에틸)아미노-6-(메틸티오)피라졸로[3,4-d]피리미딘], the activity at 20 µM amounted to 87 ± 6%. With `CSc1nc(NC(C)(C)CO)c2cnn(C)c2n1` [12b, 1-메틸-4-[(1-하이드록시-2,2-다이메틸)에틸]아미노-6-(메틸티오)피라졸로[3,4-d]피리미딘], the activity at 20 µM stood at 90 ± 7%. Take `CSc1nc(N(CCO)CCO)c2cnn(Cc3ccccc3)c2n1` [화합물 16i, 1-벤질-4-비스(1-하이드록시에틸)아미노-6-(메틸티오)피라졸로[3,4-d]피리미딘]: the activity at 20 µM was found to be 79 ± 3%. With `Cc1ccc(-n2ncc3c(NCc4ccccc4C)nc(S(C)(=O)=O)nc32)cc1` [화합물 23n, N-(2-메틸벤질)-1-(4-메틸페닐)-6-(메틸설포닐)-1-p-톨릴-1H-피라졸로[3,4-d]피리미딘-4-아민], the activity at 20 µM was 82 ± 3.1%. In the case of `C=CCNc1nc(SC)nc2c1cnn2C(C)(C)C` [화합물 17f, 1-t-뷰틸-4-알릴아미노-6-(메틸티오)피라졸로[3,4-d]피리미딘], the activity at 20 µM is 89 ± 8%. The same measure, in the same setting: the result for `CCCCNc1nc([S+](C)[O-])nc2c1cnn2-c1ccccc1` (stereo not drawn) [화합물 22d, N-뷰틸-6-(메틸설파이닐)-1-페닐-1H-피라졸로[3,4-d]피리미딘-4-아민] reads 46 ± 8.3%; that for `CSc1nc(NCCCn2ccnc2)c2cnn(C)c2n1` [12d, 1-메틸-4-[3-(이미다졸-1-일)]프로필아미노-6-(메틸티오)피라졸로[3,4-d]피리미딘], 75 ± 1%. On to `CCCCNc1nc(SC)nc2c1cnn2-c1ccccc1` [화합물 15t, 1-페닐-4-n-뷰틸아미노-6-(메틸티오)피라졸로[3,4-d]피리미딘], for which the activity at 20 µM was determined as 48 ± 8%. As to `CSc1nc(NCc2ccccc2)c2cnn(CCNC(=O)OC(C)(C)C)c2n1` [화합물 14a, 1-(N-t-Boc-아미노에틸)-4-벤질아미노-6-(메틸티오)피라졸로[3,4-d]피리미딘], the activity at 20 µM amounted to 58 ± 6%. On the same count and under the same terms, under `C=CCn1ncc2c(NCCO)nc(SC)nc21` [화합물 13c, 1-알릴-4-(1-하이드록시에틸)아미노-6-(메틸티오)피라졸로[3,4-d]피리미딘] stands 77 ± 7%. Take `C=CCn1ncc2c(NCc3ccc(C)cc3)nc(SC)nc21` [화합물 13g, N-(4-메틸벤질)-1-알릴-6-(메틸티오)-1H-피라졸로[3,4-d]피리미딘-4-아민]: the activity at 20 µM came to 12.2 ± 3.8%. `COc1cccc(CCn2ncc3c(NCc4ccc(C)cc4)nc(SC)nc32)c1` [화합물 18f, 1-(3-메톡시펜에틸)-N-(4-메틸벤질)-6-(메틸티오)-1H-피라졸로[3,4-d]피리미딘-4-아민]: the activity at 20 µM is 56 ± 3.1%. As to `COc1ccc(CNc2nc(SC)nc3c2cnn3C)cc1` [12h, 1-메틸-4-(4-메톡시벤질)아미노-6-(메틸티오)피라졸로[3,4-d]피리미딘], the activity at 20 µM was 33 ± 10%. Same read-out and setting: under `CSc1nc(NCc2ccccn2)c2cn[nH]c2n1` [6y, 6-(메틸티오)-N-((피리딘-2-일)메틸)-1H-피라졸로[3,4-d]피리미딘-4-아민] stands 90 ± 2.9%. In the case of `CSc1nc2c(cnn2-c2ccccc2)c(=O)[nH]1` [8b, 1-페닐-6-(메틸티오)피라졸로[3,4-d]피리미딘-4-온], the activity at 20 µM is 75 ± 3%. As to `CSc1nc(Cl)c2cnn(-c3ccc(C)cc3)c2n1` [5i, 1-(4-메틸페닐)-4-클로로-6-(메틸티오)피라졸로[3,4-d]피리미딘], the activity at 20 µM worked out at 54 ± 2.7%. On the same count and under the same terms, under `CSc1nc(N[C@H](C)c2ccccc2)c2cnn(-c3ccccc3)c2n1` [화합물 15h, (R)-1-페닐-4-(1-페닐에틸)아미노-6-(메틸티오)피라졸로[3,4-d]피리미딘] stands 29 ± 4.6%.

Consider `COc1cccc(CNc2nc(SC)nc3c2cnn3-c2ccccc2)c1` [화합물 15l, 1-페닐-4-(3-메톡시벤질)아미노-6-(메틸티오)피라졸로[3,4-d]피리미딘], for which the activity at 20 µM was found to be 50 ± 9%.

On to `Cc1ccc(-n2ncc3c(NCc4ccccc4Cl)nc(S(C)(=O)=O)nc32)cc1` [화합물 23l, N-(2-클로로벤질)-6-(메틸설포닐)-1-p-톨릴-1H-피라졸로[3,4-d]피리미딘-4-아민], for which the activity at 20 µM was determined as 30 ± 37.4%.

As for `CSc1nc(Sc2c(Cl)cccc2Cl)c2cnn(Cc3ccccc3)c2n1` [화합물 16t, 4-(2,6-다이클로로페닐티오)-1-벤질-6-(메틸티오)-1H-피라졸로[3,4-d]피리미딘], the activity at 20 µM came to 43 ± 1.2%. `CSc1nc(Cl)c2cnn(Cc3ccccc3)c2n1` [5f, 1-벤질-4-클로로-6-(메틸티오)피라졸로[3,4-d]피리미딘]: the activity at 20 µM was determined as 69 ± 3%.

For `CSc1nc(NCc2ccccc2C)c2cnn(Cc3ccccc3)c2n1` [화합물 16f, 1-벤질-4-(2-메틸벤질)아미노-6-(메틸티오)피라졸로[3,4-d]피리미딘], the activity at 20 µM came out at 35 ± 6%. On to `COc1ccccc1CCn1ncc2c(NCc3ccccc3Cl)nc(SC)nc21` [화합물 19h, N-(2-클로로벤질)-1-(2-메톡시펜에틸)-6-(메틸티오)-1H-피라졸로[3,4-d]피리미딘-4-아민], for which the activity at 20 µM stood at 18 ± 1.2%. On the same count and under the same terms, under `C=CCn1ncc2c(NCc3cccc(OC)c3)nc(SC)nc21` [화합물 13j, N-(3-메톡시벤질)-1-알릴-6-(메틸티오)-1H-피라졸로[3,4-d]피리미딘-4-아민] stands 87 ± 0.2%; under `COc1ccc(CNc2nc(S(C)(=O)=O)nc3c2cnn3-c2ccc(C)cc2)cc1` [화합물 23o, N-(4-메톡시벤질)-6-(메틸설포닐)-1-p-톨릴-1H-피라졸로[3,4-d]피리미딘-4-아민], 30 ± 2.4%; under `CSc1nc(NCc2ccc(F)cc2)c2c(-c3ccccc3)nn(-c3ccccc3)c2n1` [화합물 31c, 1-페닐-3-페닐-4-(4-플루오로벤질)아미노-6-(메틸티오)피라졸로[3,4-d]피리미딘], 100 ± 4%. For the compound `CSc1nc(NC(C)(C)CO)c2cnn(Cc3ccccc3)c2n1` [화합물 16j, 1-벤질-4-[(1-하이드록시-2,2-다이메틸)에틸]아미노-6-(메틸티오)피라졸로[3,4-d]피리미딘], the activity at 20 µM is 48 ± 8%. Turning to `CC(Nc1nc(NCc2ccccc2)nc2c1cnn2Cc1ccccc1)c1ccccc1` (stereo not drawn) [화합물 24e, N6,1-디벤질-N4-(1-페닐에틸)-1-벤질-1H-피라졸로[3,4-d]피리미딘-4,6-디아민], the activity at 20 µM turned out to be 41 ± 16.3%. For `C=CCn1ncc2c(NC(C)c3ccccc3)nc(SC)nc21` (stereo not drawn) [화합물 13i, 1-알릴-6-(메틸티오)-N-(1-페닐에틸)-1H-피라졸로[3,4-d]피리미딘-4-아민], the activity at 20 µM was found to be 9.5 ± 3.8%.

With `C=CCn1ncc2c(NCc3ccccc3Cl)nc(SC)nc21` [화합물 13o, N-(2-클로로벤질)-1-알릴-6-(메틸티오)-1H-피라졸로[3,4-d]피리미딘-4-아민], the activity at 20 µM worked out at 17.5 ± 1.5%. As for `CSc1nc(NCc2ccc(C)cc2)c2cnn(-c3ccccc3)c2n1` [화합물 15p, 1-페닐-4-(4-메틸벤질)아미노-6-(메틸티오)피라졸로[3,4-d]피리미딘], the activity at 20 µM was 71 ± 5%. `CSc1ncc2cnn(-c3ccccc3)c2n1` [7b, 1-페닐-6-(메틸티오)피라졸로[3,4-d]피리미딘]: the activity at 20 µM was 78 ± 4%. Turning to `C=CCNc1nc(SC)nc2[nH]ncc12` [6b, 4-알릴아미노-6-(메틸티오)피라졸로[3,4-d]피리미딘], the activity at 20 µM was determined as 100 ± 4%. For `COc1cccc(CNc2nc(SC)nc3c2cnn3CCO)c1` [화합물 27d, 1-(1-하이드록시에틸)-4-(3-메톡시벤질)아미노-6-(메틸티오)피라졸로[3,4-d]피리미딘], the activity at 20 µM came out at 49 ± 12%.

Consider `COc1cccc(CCn2ncc3c(NCc4ccccc4Cl)nc(SC)nc32)c1` [화합물 18a, N-(2-클로로벤질)-1-(3-메톡시펜에틸)-6-(메틸티오)-1H-피라졸로[3,4-d]피리미딘-4-아민], for which the activity at 20 µM stood at 43 ± 18.1%. Consider `CC(Nc1nc(S(C)(=O)=O)nc2c1cnn2Cc1ccccc1)C1CCCCC1` (stereo not drawn) [화합물 23t, 1-벤질-N-(1-사이클로헥실에틸)-6-(메틸설포닐)-1H-피라졸로[3,4-d]피리미딘-4-아민], for which the activity at 20 µM worked out at 42 ± 2.6%. Consider `COc1ccccc1CNc1nc([S+](C)[O-])nc2c1cnn2-c1ccc(F)cc1` (stereo not drawn) [화합물 22e, N-(2-메톡시벤질)-1-(4-플루오로페닐)-6-(메틸설파이닐)-1-페닐-1H-피라졸로[3,4-d]피리미딘-4-아민], for which the activity at 20 µM turned out to be 31 ± 6.9%. For `CSc1nc(NCc2ccc(C)cc2)c2cnn(-c3ccc(C)cc3)c2n1` [화합물 21f, N-(4-메틸벤질)-6-(메틸티오)-1-p-톨릴-1H-피라졸로[3,4-d]피리미딘-4-아민], the activity at 20 µM is 49 ± 5.9%. In the case of `CSc1nc(Cl)c2cnn(-c3ccc(F)cc3)c2n1` [5h, 1-(4-플루오로페닐)-4-클로로-6-(메틸티오)피라졸로[3,4-d]피리미딘], the activity at 20 µM is 9 ± 42.2%.

With `CSc1nc(NC(C)(C)CO)c2cn[nH]c2n1` [6l, 4-(2-하이드록시-1-다이메틸에틸)아미노-6-(메틸티오)피라졸로[3,4-d]피리미딘], the activity at 20 µM stood at 125 ± 14%. On to `COc1ccccc1CNc1nc(SC)nc2c1cnn2-c1ccccc1` [화합물 15v, 1-페닐-4-(2-메톡시벤질)아미노-6-(메틸티오)피라졸로[3,4-d]피리미딘], for which the activity at 20 µM amounted to 41 ± 2%. Regarding `CSc1nc(NC(C)c2ccc(C)cc2)c2cnn(-c3ccccc3)c2n1` (stereo not drawn) [화합물 15zb, 6-(메틸티오)-1-페닐-N-(1-p-톨릴에틸)-1H-피라졸로[3,4-d]피리미딘-4-아민], the activity at 20 µM turned out to be 51 ± 0.1%.

Consider `CSc1nc(NCCc2ccccc2)c2cnn(-c3ccccc3)c2n1` [화합물 15b, 1-페닐-4-(2-페닐에틸)아미노-6-(메틸티오)피라졸로[3,4-d]피리미딘], for which the activity at 20 µM worked out at 72 ± 8%. On to `CSc1nc2c(cnn2C(C)(C)C)c(=S)[nH]1` [9d, 1-t-뷰틸-6-(메틸티오)피라졸로[3,4-d]피리미딘-4-티온], for which the activity at 20 µM was 108 ± 5%. On the same count and under the same terms, the result for `CSc1nc(NCc2ccccc2Cl)c2cnn(Cc3ccccc3)c2n1` [화합물 16zi, N-(2-클로로벤질)-1-벤질-6-(메틸티오)-1H-피라졸로[3,4-d]피리미딘-4-아민] reads 39 ± 3.1%. As for `CCN(CC)c1nc(SC)nc2[nH]ncc12` [6u, 4-다이에틸아미노-6-(메틸티오)피라졸로[3,4-d]피리미딘], the activity at 20 µM turned out to be 87 ± 8%.

As for `COc1ccc(CNc2nc(SC)nc3c2cnn3CCc2cccc(OC)c2)cc1` [화합물 18e, 1-(3-메톡시펜에틸)-N-(4-메톡시벤질)-6-(메틸티오)-1H-피라졸로[3,4-d]피리미딘-4-아민], the activity at 20 µM worked out at 44 ± 1.3%. Consider `COc1cccc(CNc2nc(SC)nc3c2cnn3C(C)(C)C)c1` [화합물 17k, N-(3-메톡시벤질)-1-t-뷰틸-6-(methylthio)-1H-피라졸로[3,4-d]피리미딘-4-아민], for which the activity at 20 µM turned out to be 51 ± 5%. `C=CCn1ncc2c(NCCCC)nc(SC)nc21` [화합물 13l, 1-알릴-N-뷰틸-6-(메틸티오)-1H-피라졸로[3,4-d]피리미딘-4-아민]: the activity at 20 µM was 43.3 ± 1.1%.

Turning to `C=CCNc1nc(SC)nc2c1cnn2-c1ccccc1` [화합물 15f, 1-페닐-4-알릴아미노-6-(메틸티오)피라졸로[3,4-d]피리미딘], the activity at 20 µM was 60 ± 17%.

The experiment is the same for the next values; noted with them: Mus musculus, BV-2, 24 h, 30 μM, LPS 0.2 ㎍/mL, 24 h co-treatment, nitrite by Griess at 540 nm.
As for `CSc1nc(Cl)c2cnn(-c3ccc(F)cc3)c2n1` [5h, 1-(4-플루오로페닐)-4-클로로-6-(메틸티오)피라졸로[3,4-d]피리미딘], the activity at 30 µM is 59.6%. The same measure, in the same setting: under `CSc1nc2[nH]ncc2c(=O)[nH]1` [8a, 6-(메틸티오)피라졸로[3,4-d]피리미딘-4-온] stands 75 ± 0.9%.

The values above are taken from KR20130112248A, “피라졸로피리미딘 유도체 화합물, 이를 포함하는 산화질소 생성 억제용 조성물 및 뇌신경 질환 예방 및 치료용 약학적 조성물” (한국과학기술연구원, priority 2012, dated 2013).
